Key:
[1] = biological target: GABAA central benzodiazepine receptor; assay: Benzodiazepine binding assay ((3H)-flunitrazepam displacement); conditions: read-out: BZ binding assay (IC50); rat whole brain (except cerebellum) membranes, 1 nM (3H)-flunitrazepam, 3-concentration dose response curve
[2] = test system: GABAA receptors; assay: Electrophysiology assay (two-electrode voltage clamp, Xenopus oocytes expressing GABAA receptors); assay type: cell-based; conditions: positive (Pos) or negative (Neg) modulation of GABA EC10 current at a screening concentration of 10 μM; receptor subtype not stated
Description: The modulation of GABAA function is determined by changes in current as determined in an electrophysiology assay, as is detailed below.
mRNA was prepared from lyophilized plasmid pellets containing cDNA inserts encoding the specific GABAA receptor subunit. cDNAs encoding the α2, α3, and γ3 subunits were subcloned into pBluescript, SK^−. cDNAs encoding the α1 and α5 subunits were subcloned into prC while cDNA encoding the β2 subunit was subcloned into pcDNA1. The cDNA construct encoding the γ2s subunit is in the pGH19 expression construct. Overnight cultures of transformed DH5a bacterial cells were performed to grow sufficient quantities for maxiprep isolation of the plasmid cDNA. The resulting plasmid cDNA was linearized by digestion with an appropriate restriction enzyme that cleaves distal to the cDNA insert (XbaI for α1,2, β2, and γ3 or NotI for α3,5 and γ2, respectively). Following digestion, plasmid cDNA was treated with proteinase K and extracted with phenol/chloroform/isoamyl alcohol, followed by ethanol precipitation. cDNA quality was assessed by agarose-gel electrophoresis (1.5% agarose gel). Samples were stored at −20° C. until use. In vitro transcription was performed with T7 RNA polymerase. mRNA was then stored at −80° C. until use. Plasmids were linearized with appropriate restriction enzymes before in vitro transcription using the Message Machine kit (Ambion, Austin, Tex.).
GABAA receptor expression in Xenopus oocytes: Following 45 min of 0.15% Tricaine anesthesia, an ovarian section containing the follicular oocytes was removed from the frog through a lateral abdominal incision. Oocytes were immediately placed in a calcium-free solution (NaCl 96 mM, MgCl2 1 mM, KCl 2 mM, Hepes 50 mM, pyruvate 2.5 mM, gentamycin 100 μg/mL, penicillin-streptomycin 50 U/mL, pH 7.4). Following 1.5-2 hour incubation in 0.2% collagenase (type II, Sigma Chemical Co., St. Louis, Mo.) at room temperature, individual Dumont stage V and VI oocytes were transferred to an incubator and maintained overnight in Barth's solution (NaCl 84 mM, NaHCO3 2.4 mM, MgSO4 0.82 mM, KCl 1 mM, Ca(NO3)2 0.33 mM, CaCl2 0.41 mM, Tris/HCl 7.5 mM, pyruvate 2.5 mM, gentamycin 50 μg/mL, penicillin-streptomycin, 100 units/mL, pH 7.4) at 18-20° C. and used for experiments 1-5 days post-injection. Oocytes were injected solution using an electronic microinjector (Drummond, Broomall, Pa.) with […] of RNA containing 0.3-0.5 ng of each subunit RNA in a 1:1:1 ratio. The injected oocytes were used for experiments after 1-5 days of incubation in Barth's solution at 18-20° C.
Measurements of ion currents from oocytes expressing GABAA receptors were performed using a Warner two-electrode voltage-clamp amplifier (Warner Instruments, Inc., Foster City, Calif.) (Park-Chung, M., et al. (1999) Brain Res. 830: 72-87 incorporated herein in its entirety). Microelectrodes were fabricated from borosilicate glass capillaries with a programmed pipette puller (Sutter Instrument Co., CA). Microelectrode resistance was 1-3 MΩ when filled with 3 M KCl. The oocyte recording chamber was continuously perfused with Ringer solution. Oocytes were clamped at a holding potential of −70 mV during data acquisition. The membrane current was filtered at 10 Hz and sampled at 100 Hz. Compounds were applied by a gravity-driven external perfusion system. The working volume of the recording chamber was 30 μL and the rate of the perfusion was approximately 50 μL/sec. Compound application was 10-20 sec followed by a 90 sec wash. Data acquisition and external perfusion was computer controlled by custom-developed software. All experiments were performed at room temperature (22-24° C.). Dose-response data from each oocyte were fitted to the Hill equation by non-linear regression using the equation: IGABA=Emax/(1+(EC50/c)^n^H) Emax is the maximum response, EC50 is the concentration producing 50% of the maximal response, nH is the Hill coefficient and c is the concentration of agonist. […]

Structure (SMILES)	IC50 [1] [nM]	EP result [2]
O=c1c2c[nH]c3ccc(N4CCNCC4)nc3c-2nn1-c1ccccc1 [6a, 2-Phenyl-8-(piperazin-1-yl)-2,5-dihydro-pyrazolo[4,3-c][1,5]naphthyridin-3-one]	< 1000	Neg
CN1CCN(c2ccc3[nH]cc4c(=O)n(-c5ccccc5)nc-4c3n2)CC1 [6b, 8-(4-Methyl-piperazin-1-yl)-2-phenyl-2,5-dihydro-pyrazolo[4,3-c]-[1,5]naphthyridin-3-one]	< 1000	Neg
O=c1c2c[nH]c3ccc(N4CCOCC4)nc3c-2nn1-c1ccccc1 [6c, 8-Morpholin-4-yl-2-phenyl-2,5-dihydro-pyrazolo[4,3-c][1,5]naphthyridin-3-one]	< 1	Neg
O=c1c2c[nH]c3ccc(N4CCC(O)CC4)nc3c-2nn1-c1ccccc1 [6d, 8-(4-Hydroxy-piperidin-1-yl)-2-phenyl-2,5-dihydro-pyrazolo[4,3-c][1,5]naphthyridin-3-one]	< 1	–
CC1CN(c2ccc3[nH]cc4c(=O)n(-c5ccccc5)nc-4c3n2)CCN1 (stereo not shown) [6e, 8-(3-Methyl-piperazin-1-yl)-2-phenyl-2,5-dihydro-pyrazolo[4,3-c][1,5]naphthyridin-3-one]	< 1000	–
O=c1c2c[nH]c3ccc(N4CCCC(O)C4)nc3c-2nn1-c1ccccc1 (stereo not shown) [6f, 8-(3-Hydroxy-piperidin-1-yl)-2-phenyl-2,5-dihydro-pyrazolo[4,3-c][1,5]naphthyridin-3-one]	< 1000	–
O=c1c2c[nH]c3ccc(N4CCN(c5ccc(F)cc5)CC4)nc3c-2nn1-c1ccccc1 [6g, 8-[4-(4-Fluoro-phenyl)-piperazin-1-yl]-2-phenyl-2,5-dihydro-pyrazolo[4,3-c][1,5]naphthyridin-3-one]	< 1000	–
O=c1c2c[nH]c3ccc(N4CCCNCC4)nc3c-2nn1-c1ccccc1 [6h, 8-[1,4]-Diazepan-1-yl-2-phenyl-2,5-dihydro-pyrazolo[4,3-c][1,5]naphthyridin-3-one]	< 1000	–
O=c1c2c[nH]c3ccc(N4CCCC(CO)C4)nc3c-2nn1-c1ccccc1 (stereo not shown) [6i, 8-(3-Hydroxymethyl-piperidin-1-yl)-2-phenyl-2,5-dihydro-pyrazolo[4,3-c][1,5]naphthyridin-3-one]	< 1	–
O=C1CN(c2ccc3[nH]cc4c(=O)n(-c5ccccc5)nc-4c3n2)CCN1 [6j, 8-(3-Oxo-piperazin-1-yl)-2-phenyl-2,5-dihydro-pyrazolo[4,3-c][1,5]naphthyridin-3-one]	< 1000	–
O=c1c2c[nH]c3ccc(N4CCCC4)nc3c-2nn1-c1ccccc1 [6k, 2-Phenyl-8-pyrrolidin-1-yl-2,5-dihydro-pyrazolo[4,3-c][1,5]naphthyridin-3-one]	< 1	–
O=c1c2c[nH]c3ccc(N4CCN(c5ccccc5)CC4)nc3c-2nn1-c1ccccc1 [6l, 2-Phenyl-8-(4-phenyl-piperazin-1-yl)-2,5-dihydro-pyrazolo[4,3-c][1,5]naphthyridin-3-one]	< 1000	Pos
CC1CN(c2ccc3[nH]cc4c(=O)n(-c5ccccc5)nc-4c3n2)CC(C)O1 (stereo not shown) [6m, 8-(2,6-Dimethyl-morpholin-4-yl)-2-phenyl-2,5-dihydro-pyrazolo[4,3-c][1,5]naphthyridin-3-one]	< 1000	Pos
CN1CCN(c2ccc3[nH]cc4c(=O)n(-c5ccccn5)nc-4c3n2)CC1 [6n, 8-(4-Methyl-piperazin-1-yl)-2-pyridin-2-yl-2,5-dihydro-pyrazolo[4,3-c][1,5]naphthyridin-3-one]	< 1000	–
O=c1c2c[nH]c3ccc(N4CCOCC4)nc3c-2nn1-c1ccccn1 [6o, 8-Morpholin-4-yl-2-pyridin-2-yl-2,5-dihydro-pyrazolo[4,3-c][1,5]naphthyridin-3-one]	< 1000	–
CN1CCCN(c2ccc3[nH]cc4c(=O)n(-c5ccccn5)nc-4c3n2)CC1 [6p, 8-(4-Methyl-[1,4]diazepan-1-yl)-2-pyridin-2-yl-2,5-dihydro-pyrazolo[4,3-c][1,5]naphthyridin-3-one]	< 1000	–
CC1CN(c2ccc3[nH]cc4c(=O)n(-c5ccccn5)nc-4c3n2)CCN1 (stereo not shown) [6q, 8-(3-Methyl-piperazin-1-yl)-2-pyridin-2-yl-2,5-dihydro-pyrazolo[4,3-c][1,5]naphthyridin-3-one]	< 1000	Pos
O=c1c2c[nH]c3ccc(N4CCC(O)CC4)nc3c-2nn1-c1ccccn1 [6r]	< 1	–
O=c1c2c[nH]c3ccc(N4CCNCC4)nc3c-2nn1-c1ccccn1 [6s, 8-piperazin-1-yl-2-pyridin-2-yl-2,5-dihydro-pyrazolo[4,3-c][1,5]naphthyridin-3-one]	< 1000	Pos
COc1ccc(-n2nc3c4nc(N5CCN(C)CC5)ccc4[nH]cc-3c2=O)cc1 [6t, 2-(4-Methoxy-phenyl)-8-(4-methyl-piperazin-1-yl)-2,5-dihydro-pyrazolo[4,3-c][1,5]naphthyridin-3-one]	< 1	Neg
O=c1c2c[nH]c3cc(N4CCNCC4)ncc3c-2nn1-c1ccccc1 [compound 14, 2-Phenyl-7-(piperazin-1-yl)-2,5-dihydro-pyrazolo[4,3-c][1,6]naphthyridin-3-one]	> 1000	Neg
O=c1c2c[nH]c3c(N4CCNCC4)nccc3c-2nn1-c1ccccc1 [compound 17, 2-Phenyl-6-(piperazin-1-yl)-2,5-dihydro-pyrazolo[4,3-c][1,7]naphthyridin-3-one]	> 1000	–

Source: patent publication US8497262B2, “Therapeutic pyrazolonaphthyridine derivatives” (Dart NeuroScience (Cayman) Ltd, priority 2007, dated 2013)
